Test results reported in paper PMC5802374 (Cell, 2018).
Several values for one entry are separate records, joined by “and”; a condition that tells them apart may be missing. Identical values can stand only once. Like-named read-outs stand apart in the source and are kept apart here.

Experiments:
KOP wt [1] = target: T1, KOP wt (Homo sapiens, UniProt P41145); details: N = 3
KOP [2] = target: T2, KOP (Homo sapiens, UniProt P41145); format: cell-based
MOP [3] = target: T3, MOP (Homo sapiens, UniProt P35372); test: cAMP inhibition assay; format: cell-based; details: N = 3
MOP [4] = target: T3, MOP; test: Bias factor towards G protein in MOP; format: cell-based; details: GTPγ[35S] vs BRET arrestin recruitment; DAMGO as reference agonist
MOP [5] = target: T3, MOP; details: N = 3
KOP [6] = target: T2, KOP; format: cell-based; remark: listed apart in the source
MOP [7] = target: T3, MOP; test: cell-based
KOP wt [8] = target: T1, KOP wt; test: cell-based
MOP [9] = target: T3, MOP; test: biochemical
KOP [10] = target: T2, KOP; test: biochemical
KOP [11] = target: T2, KOP
MOP [12] = target: T3, MOP
[13] = target: human kappa-opioid receptor (KOP) containing C-terminal Renilla luciferase (RLuc8) (human, UniProt P41145); test: FRET or BRET
KOP [14] = test: Radioligand; format: binding, human; details: agonist U69,593; KOP+Nb39 vs KOP only

T2 sequence (P41145 whole entry): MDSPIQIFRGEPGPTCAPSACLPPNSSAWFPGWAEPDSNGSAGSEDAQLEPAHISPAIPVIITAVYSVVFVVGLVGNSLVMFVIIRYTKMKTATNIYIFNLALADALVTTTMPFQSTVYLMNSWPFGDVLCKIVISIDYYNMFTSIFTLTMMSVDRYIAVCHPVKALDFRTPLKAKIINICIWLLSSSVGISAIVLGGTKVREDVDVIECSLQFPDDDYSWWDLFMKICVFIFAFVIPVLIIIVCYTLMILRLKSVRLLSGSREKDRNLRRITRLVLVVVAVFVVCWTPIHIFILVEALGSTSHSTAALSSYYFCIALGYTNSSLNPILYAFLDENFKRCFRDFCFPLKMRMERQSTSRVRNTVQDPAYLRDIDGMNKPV
T1 sequence (P41145 whole entry): as above
Chain of human kappa-opioid receptor (KOP) containing C-terminal Renilla luciferase (RLuc8) (P41145 whole entry): as above
T3 sequence (P35372 whole entry): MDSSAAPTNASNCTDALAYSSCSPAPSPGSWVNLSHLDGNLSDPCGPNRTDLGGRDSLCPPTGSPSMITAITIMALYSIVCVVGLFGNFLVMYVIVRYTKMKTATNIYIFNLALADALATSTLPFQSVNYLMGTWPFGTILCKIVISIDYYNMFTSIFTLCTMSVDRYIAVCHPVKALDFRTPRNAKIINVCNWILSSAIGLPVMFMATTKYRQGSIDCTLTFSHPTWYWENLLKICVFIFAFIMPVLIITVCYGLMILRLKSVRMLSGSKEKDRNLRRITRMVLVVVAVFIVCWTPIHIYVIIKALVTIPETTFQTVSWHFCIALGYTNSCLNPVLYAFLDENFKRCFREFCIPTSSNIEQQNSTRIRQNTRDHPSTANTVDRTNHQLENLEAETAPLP

For `O=C(N[C@@H]1CC[C@@]2(O)[C@H]3Cc4ccc(O)c5c4[C@@]2(CCN3CC2CC2)[C@H]1O5)c1cccc(I)c1` [IBNtxA], the “Emax arrestin recruitment in KOP wt, Figure 5D” value (KOP wt [1]; Figure 5D, comparison with Y312^7.35W) was 112±10, the “Emax arrestin recruitment (Tango) in KOP wt” value (KOP wt [1]; method: normalized to % SalA stimulation) was 95±8 and 113±12 and the EC50 (KOP wt [1]; read-out: EC50 arrestin recruitment (Tango) in KOP wt) was 0.032 ± 0.01 nM. For the same molecule, the “Emax Gi activation (cAMP inhibition) in KOP” value (KOP [2]) was 96±1, the EC50 (KOP [2]; read-out: EC50 Gi activation (cAMP inhibition) in KOP) was 0.002 ± 0.001 nM and the “Emax Gi activation (cAMP inhibition) in MOP” value (MOP [3]) was 99±6. The EC50 (MOP [3]; read-out: EC50 Gi activation (cAMP inhibition) in MOP) was 0.056 ± 0.012 nM, the “Bias factor towards G protein in MOP, 10^ΔΔLog(τ/KA)” value (MOP [4]) was 9 and the “Emax arrestin recruitment (Tango) in MOP” value (MOP [5]) was 25±6 and 23±4. For the same molecule, the EC50 (MOP [5]; read-out: EC50 arrestin recruitment (Tango) in MOP) was 0.075 nM and 0.1 nM.

With `CC(C)[C@@H](CN1CC[C@@](C)(c2cccc(O)c2)[C@@H](C)C1)NC(=O)[C@H]1Cc2ccc(O)cc2CN1` [JDTic] the “Nb39 recruitment to KOP (in words)” value (KOP [6]) was “no effect”.

With `C=CCN1CC[C@]23c4c5ccc(O)c4OC2[C@H](NC(=O)c2ccc(F)c(I)c2)CC[C@@]3(O)C1C5` (stereo partly drawn) [MP903, N-((4aS,7R,12bS)-3-allyl-4a,9-dihydroxy-2,3,4,4a,5,6,7,7a-octahydro-1H-4,12-methanobenzofuro[3,2-e]isoquinolin-7-yl)-4-fluoro-3-iodobenzamide] the EC50 (MOP [7]) was 0.12 ± 0.05 nM, the Emax (MOP [7]; read-out: Emax arrestin recruitment (Tango) in MOP) was 33 ± 5% and the EC50 (KOP wt [8]) was 0.074 ± 0.012 nM. It also gave an Emax (KOP wt [8]; read-out: Emax arrestin recruitment (Tango) in KOP wt) of 108 ± 10%.

For `O=C(N[C@@H]1C=CC2C3Cc4ccc(O)c5c4[C@@]2(CCN3CC2CC2)C1O5)c1ccccc1` (stereo partly drawn) [MP1108, N-((7R,12bS)-3-(cyclopropylmethyl)-9-hydroxy-2,3,4,4a,7,7a-hexahydro-1H-4,12-methanobenzofuro[3,2-e]isoquinolin-7-yl)benzamide], the Ki (MOP [9]) was 0.42 ± 0.06 nM and the Ki (KOP [10]) was 0.42 ± 0.05 nM.

`O=C(N[C@@H]1C=CC2C3Cc4ccc(O)c5c4[C@@]2(CCN3CC2CC2)C1O5)c1cccc(Cl)c1` (stereo partly drawn) [MP1109, 3-Chloro-N-((7R,12bS)-3-(cyclopropylmethyl)-9-hydroxy-2,3,4,4a,7,7a-hexahydro-1H-4,12-methanobenzofuro[3,2-e]isoquinolin-7-yl)benzamide] was tested, and the Ki (MOP [9]) was 0.16 ± 0.05 nM and the Ki (KOP [10]) was 0.13 ± 0.03 nM.

In the case of `O=C(N[C@@H]1C=CC2C3Cc4ccc(O)c5c4[C@@]2(CCN3CC2CC2)C1O5)c1cccc(Br)c1` (stereo partly drawn) [MP1110, 3-Bromo-N-((7R,12bS)-3-(cyclopropylmethyl)-9-hydroxy-2,3,4,4a,7,7a-hexahydro-1H-4,12-methanobenzofuro[3,2-e]isoquinolin-7-yl)benzamide], the Ki (MOP [9]) is reported as 0.18 ± 0.04 nM and the Ki (KOP [10]) is reported as 0.12 ± 0.04 nM.

`O=C(N[C@@H]1C=CC2C3Cc4ccc(O)c5c4[C@@]2(CCN3CC2CC2)C1O5)c1ccccc1I` (stereo partly drawn) [MP1111, N-((7R,12bS)-3-(cyclopropylmethyl)-9-hydroxy-2,3,4,4a,7,7a-hexahydro-1H-4,12-methanobenzofuro[3,2-e]isoquinolin-7-yl)-2-iodobenzamide] showed a Ki (MOP [9]) of 0.2 ± 0.05 nM and a Ki (KOP [10]) of 0.27 ± 0.06 nM.

Molecule `O=C(N[C@@H]1C=CC2C3Cc4ccc(O)c5c4[C@@]2(CCN3CC2CC2)C1O5)c1ccc(I)cc1` (stereo partly drawn) [MP1112, N-((7R,12bS)-3-(cyclopropylmethyl)-9-hydroxy-2,3,4,4a,7,7a-hexahydro-1H-4,12-methanobenzofuro[3,2-e]isoquinolin-7-yl)-4-iodobenzamide] has a Ki (MOP [9]) of 0.17 ± 0.03 nM and a Ki (KOP [10]) of 0.12 ± 0.03 nM.

`O=C(N[C@@H]1C=CC2C3Cc4ccc(O)c5c4[C@@]2(CCN3CC2CC2)C1O5)c1cccc(C(F)(F)F)c1` (stereo partly drawn) [MP1113, N-((7R,12bS)-3-(cyclopropylmethyl)-9-hydroxy-2,3,4,4a,7,7a-hexahydro-1H-4,12-methanobenzofuro[3,2-e]isoquinolin-7-yl)-3-(trifluoromethyl)benzamide] showed a Ki (MOP [9]) of 0.24 ± 0.06 nM and a Ki (KOP [10]) of 0.14 ± 0.07 nM.

Work on `O=C(N[C@@H]1C=CC2C3Cc4ccc(O)c5c4[C@@]2(CCN3CC2CC2)C1O5)c1cccc(F)c1` (stereo partly drawn) [MP1114, N-((7R,12bS)-3-(cyclopropylmethyl)-9-hydroxy-2,3,4,4a,7,7a-hexahydro-1H-4,12-methanobenzofuro[3,2-e]isoquinolin-7-yl)-3-fluorobenzamide] yielded a Ki (MOP [9]) of 0.27 ± 0.08 nM and a Ki (KOP [10]) of 0.16 ± 0.07 nM.

With `Cc1cccc(C(=O)N[C@@H]2C=CC3C4Cc5ccc(O)c6c5[C@@]3(CCN4CC3CC3)C2O6)c1` (stereo partly drawn) [MP1115, N-((7R,12bS)-3-(cyclopropylmethyl)-9-hydroxy-2,3,4,4a,7,7a-hexahydro-1H-4,12-methanobenzofuro[3,2-e]isoquinolin-7-yl)-3-methylbenzamide] the Ki (MOP [9]) was 0.25 ± 0.06 nM and the Ki (KOP [10]) was 0.18 ± 0.08 nM.

`CN(C(=O)/C=C/c1ccoc1)[C@@H]1CC[C@@]2(O)[C@H]3Cc4ccc(O)c5c4[C@@]2(CCN3CC2CC2)[C@H]1O5` [Nalfurafine, reference compound] showed a Ki (MOP [9]) of 4.2 ± 0.21 nM.

`CN(C(=O)/C=C/c1ccoc1)[C@@H]1CC[C@@]2(O)[C@H]3Cc4cccc5c4[C@@]2(CCN3CC2CC2)[C@H]1O5` [compound 18] showed a Ki (KOP [11]) of 1.5 ± 0.05 nM and a Ki (MOP [12]) of 533 ± 65 nM.

B1: Nb39 containing a C-terminal YFP (VHH)
VHH: QVQLVESGGGLVRPGGSLRLSCVDSERTSYPMGWFRRAPGKEREFVASITWSGIDPTYADSVADRFTTSRDVANNTLYLQMNSLKHEDTAVYYCAARAPVGQSSSPYDYDYWGQGTQVTVSS
In the case of B1, the “EC50 of the agonist MP1104 for recruitment of Nb39 to KOP (BRET)” value [13] is reported as 0.12 ± 0.02 nM, the “EC50 of the agonist SalA for recruitment of Nb39 to KOP (BRET)” value [13] is reported as 11.3 nM and 11.2 nM and 10.2 nM and the “EC50 of the agonist U69,593 for recruitment of Nb39 to KOP (BRET)” value [13] is reported as 3.78 ± 0.04 nM. For the same molecule, the “EC50 of the partial agonist diprenorphine for recruitment of Nb39 to KOP (BRET)” value [13] was 5.2 ± 0.03 nM and the “Attenuation of agonist dissociation rate at KOP” value (KOP [14]) was “approximately 6 fold”.
